Measurements as given in ChEMBL document CHEMBL1201862, “PubChem BioAssay data set” (2004).
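The compound was tested at five concentrations on cells cultured in 96-well plates, with a 48-hour exposure period. GI50 is the concentration that inhibits growth by half.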 Activity calls are given as the source filed them. Cut-off read from the data, not from the text of the source: active = GI50 up to about 1.1 µM and inactive = higher.

Columns and labels:
Assay in all cases: DTP human tumour cell line panel, 48 h
NCI-H460 = test system: NCI-H460
OVCAR-3 = test system: OVCAR-3
CAKI-1 = test system: CAKI-1
786-0 = test system: 786-0
U-251 = test system: U-251
MDA-MB-435 = test system: MDA-MB-435
SF-268 = test system: SF-268
A498 = test system: A498
SK-MEL-5 = test system: SK-MEL-5
ACHN = test system: ACHN
K562 = test system: K562
CCRF-CEM = test system: CCRF-CEM
MDA-N = test system: MDA-N
NCI-H522 = test system: NCI-H522
NCI-H23 = test system: NCI-H23
NCI/ADR-RES = test system: NCI/ADR-RES
OVCAR-8 = test system: OVCAR-8
HOP-92 = test system: HOP-92
IGROV-1 = test system: IGROV-1
RPMI-8226 = test system: RPMI-8226
NCI-H226 = test system: NCI-H226
HOP-62 = test system: HOP-62
TK-10 = test system: TK-10
MDA-MB-231 = test system: MDA-MB-231
M14 = test system: M14
PC-3 = test system: PC-3
BT-549 = test system: BT-549
EKVX = test system: EKVX
COLO 205 = test system: COLO 205
MOLT-4 = test system: MOLT-4
SK-MEL-2 = test system: SK-MEL-2
OVCAR-4 = test system: OVCAR-4
HT-29 = test system: HT-29
DU-145 = test system: DU-145
MCF7 = test system: MCF7
Hs-578T = test system: Hs-578T
SF-539 = test system: SF-539
SK-OV-3 = test system: SK-OV-3
UACC-62 = test system: UACC-62
HL-60 = test system: HL-60
SK-MEL-28 = test system: SK-MEL-28
Malme-3M = test system: Malme-3M
SW-620 = test system: SW-620
T47D = test system: T47D
HCT-116 = test system: HCT-116
HCC 2998 = test system: HCC 2998
SR = test system: SR
SF-295 = test system: SF-295
UO-31 = test system: UO-31
SNB-19 = test system: SNB-19
LOX IMVI = test system: LOX IMVI
UACC-257 = test system: UACC-257
A549 = test system: A549
HCT-15 = test system: HCT-15
KM12 = test system: KM12
SN12C = test system: SN12C
SNB-75 = test system: SNB-75
OVCAR-5 = test system: OVCAR-5
RXF 393 = test system: RXF 393

## NC(=O)Cc1nc2c(N)ncnc2n1C1OC(CO)C(O)C1O (centres undefined)
NCI-H460
  GI50: > 100 µM (inactive)
OVCAR-3
  GI50: > 100 µM (inactive)
CAKI-1
  GI50: > 100 µM (inactive)
786-0
  GI50: > 100 µM (inactive)
U-251
  GI50: > 100 µM (inactive)
MDA-MB-435
  GI50: > 100 µM (inactive)
SF-268
  GI50: > 100 µM (inactive)
A498
  GI50: > 100 µM (inactive)
SK-MEL-5
  GI50: > 100 µM (inactive)
ACHN
  GI50: > 100 µM (inactive)
K562
  GI50: > 100 µM (inactive)
CCRF-CEM
  GI50: > 100 µM (inactive)
MDA-N
  GI50: > 100 µM (inactive)
NCI-H522
  GI50: > 100 µM (inactive)
NCI-H23
  GI50: > 100 µM (inactive)
NCI/ADR-RES
  GI50: > 100 µM (inactive)
OVCAR-8
  GI50: > 100 µM (inactive)
HOP-92
  GI50: > 100 µM (inactive)
IGROV-1
  GI50: > 100 µM (inactive)
RPMI-8226
  GI50: > 100 µM (inactive)
NCI-H226
  GI50: > 100 µM (inactive)
HOP-62
  GI50: > 100 µM (inactive)
TK-10
  GI50: > 100 µM (inactive)
MDA-MB-231
  GI50: > 100 µM (inactive)
M14
  GI50: > 100 µM (inactive)
PC-3
  GI50: > 100 µM (inactive)
BT-549
  GI50: > 100 µM (inactive)
EKVX
  GI50: > 100 µM (inactive)
COLO 205
  GI50: > 100 µM (inactive)
MOLT-4
  GI50: > 100 µM (inactive)
SK-MEL-2
  GI50: > 100 µM (inactive)
OVCAR-4
  GI50: > 100 µM (inactive)
HT-29
  GI50: > 100 µM (inactive)
DU-145
  GI50: > 100 µM (inactive)
MCF7
  GI50: > 100 µM (inactive)
Hs-578T
  GI50: > 100 µM (inactive)
SF-539
  GI50: > 100 µM (inactive)
SK-OV-3
  GI50: > 100 µM (inactive)
UACC-62
  GI50: > 100 µM (inactive)
HL-60
  GI50: > 100 µM (inactive)
SK-MEL-28
  GI50: > 100 µM (inactive)
Malme-3M
  GI50: > 100 µM (inactive)
SW-620
  GI50: > 100 µM (inactive)
T47D
  GI50: > 100 µM (inactive)
HCT-116
  GI50: > 100 µM (inactive)
HCC 2998
  GI50: > 100 µM (inactive)
SR
  GI50: > 100 µM (inactive)
SF-295
  GI50: > 100 µM (inactive)
UO-31
  GI50: > 100 µM (inactive)
SNB-19
  GI50: > 100 µM (inactive)
LOX IMVI
  GI50: > 100 µM (inactive)
UACC-257
  GI50: > 100 µM (inactive)
A549
  GI50: > 100 µM (inactive)
HCT-15
  GI50: > 100 µM
KM12
  GI50: > 100 µM (inactive)
SN12C
  GI50: > 100 µM (inactive)

## OC1=C(c2ccccc2)C2=NCCN2c2ccccc21
NCI-H460
  GI50: 49.9 µM (inactive)
OVCAR-3
  GI50: 18.2 µM (inactive)
SNB-75
  GI50: 23.1 µM (inactive)
CAKI-1
  GI50: > 100 µM (inactive)
786-0
  GI50: 42.5 µM (inactive)
U-251
  GI50: 73.5 µM (inactive)
MDA-MB-435
  GI50: 39.1 µM (inactive)
SF-268
  GI50: 45.9 µM (inactive)
A498
  GI50: 98.4 µM (inactive)
SK-MEL-5
  GI50: 27.8 µM (inactive)
ACHN
  GI50: 40.6 µM (inactive)
K562
  GI50: 21.8 µM (inactive)
CCRF-CEM
  GI50: 51.5 µM (inactive)
MDA-N
  GI50: 41.2 µM (inactive)
NCI-H23
  GI50: 33.5 µM (inactive)
NCI/ADR-RES
  GI50: 52.6 µM (inactive)
OVCAR-8
  GI50: 51.1 µM (inactive)
HOP-92
  GI50: > 100 µM (inactive)
IGROV-1
  GI50: 40.9 µM (inactive)
RPMI-8226
  GI50: 36.4 µM (inactive)
NCI-H226
  GI50: 48.9 µM (inactive)
HOP-62
  GI50: 31.8 µM (inactive)
TK-10
  GI50: 94 µM (inactive)
MDA-MB-231
  GI50: > 100 µM (inactive)
M14
  GI50: 57.8 µM (inactive)
PC-3
  GI50: 38.1 µM (inactive)
BT-549
  GI50: 95.7 µM (inactive)
EKVX
  GI50: 62.5 µM (inactive)
COLO 205
  GI50: 47 µM (inactive)
MOLT-4
  GI50: 46.8 µM (inactive)
SK-MEL-2
  GI50: 18.7 µM (inactive)
OVCAR-4
  GI50: > 100 µM (inactive)
HT-29
  GI50: 55.2 µM (inactive)
DU-145
  GI50: 84.1 µM (inactive)
MCF7
  GI50: 42.1 µM (inactive)
Hs-578T
  GI50: 28.1 µM (inactive)
SF-539
  GI50: 43.8 µM (inactive)
UACC-62
  GI50: 29.2 µM (inactive)
OVCAR-5
  GI50: 66.1 µM (inactive)
HL-60
  GI50: 45.5 µM (inactive)
SK-MEL-28
  GI50: 79.6 µM (inactive)
SW-620
  GI50: 78.7 µM (inactive)
T47D
  GI50: > 100 µM (inactive)
HCT-116
  GI50: 34.7 µM (inactive)
HCC 2998
  GI50: 41.1 µM (inactive)
SR
  GI50: 87.3 µM (inactive)
SF-295
  GI50: 46.1 µM (inactive)
UO-31
  GI50: 36.9 µM (inactive)
SNB-19
  GI50: 20 µM (inactive)
LOX IMVI
  GI50: 31.7 µM (inactive)
UACC-257
  GI50: 93.1 µM (inactive)
A549
  GI50: 50.6 µM (inactive)
HCT-15
  GI50: 33.3 µM
KM12
  GI50: 31.8 µM (inactive)
SN12C
  GI50: > 100 µM (inactive)

## FC1=C2CCCCCC2SC1(F)F (centres undefined)
OVCAR-3
  GI50: > 100 µM (inactive)
SNB-75
  GI50: > 100 µM (inactive)
CAKI-1
  GI50: 35.6 µM (inactive)
786-0
  GI50: > 100 µM (inactive)
MDA-MB-435
  GI50: 26.4 µM (inactive)
SF-268
  GI50: > 100 µM (inactive)
SK-MEL-5
  GI50: > 100 µM (inactive)
ACHN
  GI50: 29.8 µM (inactive)
K562
  GI50: 20.8 µM (inactive)
CCRF-CEM
  GI50: 3.36 µM (inactive)
MDA-N
  GI50: 42.2 µM (inactive)
RXF 393
  GI50: 13.3 µM (inactive)
NCI-H522
  GI50: 15.6 µM (inactive)
NCI-H23
  GI50: > 100 µM (inactive)
NCI/ADR-RES
  GI50: > 100 µM (inactive)
OVCAR-8
  GI50: 70.3 µM (inactive)
HOP-92
  GI50: 7.18 µM (inactive)
IGROV-1
  GI50: > 100 µM (inactive)
RPMI-8226
  GI50: 28.6 µM (inactive)
NCI-H226
  GI50: > 100 µM (inactive)
TK-10
  GI50: 36.6 µM (inactive)
MDA-MB-231
  GI50: 78.9 µM (inactive)
M14
  GI50: 30.7 µM (inactive)
PC-3
  GI50: > 100 µM (inactive)
BT-549
  GI50: > 100 µM (inactive)
EKVX
  GI50: > 100 µM (inactive)
COLO 205
  GI50: 19.1 µM (inactive)
MOLT-4
  GI50: 16.4 µM (inactive)
SK-MEL-2
  GI50: > 100 µM (inactive)
OVCAR-4
  GI50: > 100 µM (inactive)
HT-29
  GI50: 43.6 µM (inactive)
DU-145
  GI50: > 100 µM (inactive)
MCF7
  GI50: 71.9 µM (inactive)
Hs-578T
  GI50: > 100 µM (inactive)
SK-OV-3
  GI50: > 100 µM (inactive)
UACC-62
  GI50: > 100 µM (inactive)
OVCAR-5
  GI50: > 100 µM (inactive)
HL-60
  GI50: 12.7 µM (inactive)
SK-MEL-28
  GI50: > 100 µM (inactive)
Malme-3M
  GI50: 21.9 µM (inactive)
SW-620
  GI50: 14.8 µM (inactive)
T47D
  GI50: > 100 µM (inactive)
HCT-116
  GI50: 37.8 µM (inactive)
HCC 2998
  GI50: > 100 µM (inactive)
SR
  GI50: 20.1 µM (inactive)
SF-295
  GI50: > 100 µM (inactive)
UO-31
  GI50: > 100 µM (inactive)
SNB-19
  GI50: > 100 µM (inactive)
LOX IMVI
  GI50: 15.7 µM (inactive)
UACC-257
  GI50: 99.3 µM (inactive)
A549
  GI50: > 100 µM (inactive)
HCT-15
  GI50: 34.4 µM
KM12
  GI50: > 100 µM (inactive)
